From patent US20220233512A1, “INHIBITING AN IMMUNE RESPONSE MEDIATED BY ONE OR MORE OF TLR2, RAGE, CCR5, CXCR4 AND CD4” (priority 2020, published 2022)

Biological target: T1, mu opiate receptor (MOR) (Rattus norvegicus, UniProt P33535)
T1 construct: from tissue; host or cells: striatum (membrane preparation)
Experiment: MOR agonist activity using [35S]GTPgS binding assay in striatal membranes
Assay type: biochemical
Set-up: MOR agonist activity (preliminary study): unit of the concentration uncertain
Details: for MOR agonist activity (preliminary study): average of two runs
Protocol: To assess the mu opiate receptor (MOR) agonist activity of positive compounds from the FLNA screening, compounds were tested in a [^35S]GTPgS binding assay using striatal membranes. […] This assay measures a functional consequence of receptor occupancy at one of the earliest receptor-mediated events. The assay permits for traditional pharmacological parameters of potency, efficacy and antagonist affinity, with the advantage that agonist measures are not subjected to amplification or other modulation that may occur when analyzing parameters further downstream of the receptor.
Thus, striatal tissue was homogenized in 10 volumes of ice cold 25 mM HEPES buffer, pH 7.4, which contained 1 mM EGTA, 100 mM sucrose, 50 mg/ml leupeptin, 0.04 mM PMSF, 2 mg/ml soybean trypsin inhibitor and 0.2% 2-mercaptoethanol. The homogenates were centrifuged at 800×g for 5 minutes and the supernatants were centrifuged at 49,000×g for 20 minutes. The resulting pellets were suspended in 10 volume of reaction buffer, which contained 25 mM HEPES, pH 7.5, 100 mM NaCl, 50 mg/ml leupeptin, 2 mg/ml soybean trypsin inhibitor, 0.04 mM PMSF and 0.02% […].
The resultant striatal membrane preparation (200 mg) was admixed and maintained (incubated) at 30° C. for 5 minutes in reaction buffer as above that additionally contained 1 mM MgCl2 and 0.5 nM [^35S]GTPgS (0.1 mCi/assay, PerkinElmer Life and Analytical Sciences) in a total volume of 250 ml and continued for 5 minutes in the absence or presence of 0.1-10 mM of an assayed compound of interest. The reaction was terminated by dilution with 750 ml of ice-cold reaction buffer that contained 20 mM MgCl2 and 1 mM EGTA and immediate centrifugation at 16,000×g for 5 minutes.
The resulting pellet was solubilized by sonicating for 10 seconds in 0.5 ml of immunoprecipitation buffer containing 0.5% digitonin, 0.2% sodium cholate and 0.5% NP-40. Normal rabbit serum (1 ml) was added to 1 ml of lysate and incubated at 25° C. for 30 minutes. Nonspecific immune complexes were removed by incubation with 25 ml of protein A/G-conjugated agarose beads at 25° C. for 30 minutes followed by centrifugation at 5,000×g at 4° C. for 5 minutes. The supernatant was divided and separately incubated at 25° C. for 30 minutes with antibodies raised against Gao proteins (1:1,000 dilutions).
The immunocomplexes so formed were collected by incubation at 25° C. for 30 minutes with 40 ml of agarose-conjugated protein A/G beads and centrifugation at 5,000×g at 4° C. for 5 minutes. The pellet was washed and suspended in buffer containing 50 mM Tris-HCl, pH 8.0, and 1% NP-40. The radioactivity in the suspension was determined by liquid scintillation spectrometry. […] DAMGO (1 or 10 mM) was used as a positive control.

[1] = 0.1 μM compound as agonist, Series C-2 table
[2] = 1 μM compound as agonist, Series C-2 table
[3] = 0.1 μM compound as agonist, Series C-1 table
[4] = 1 μM compound as agonist, Series C-1 table
[5] = 0.1 (unit uncertain) compound as agonist
[6] = 1 (unit uncertain) compound as agonist

T1 sequence (P33535 whole entry): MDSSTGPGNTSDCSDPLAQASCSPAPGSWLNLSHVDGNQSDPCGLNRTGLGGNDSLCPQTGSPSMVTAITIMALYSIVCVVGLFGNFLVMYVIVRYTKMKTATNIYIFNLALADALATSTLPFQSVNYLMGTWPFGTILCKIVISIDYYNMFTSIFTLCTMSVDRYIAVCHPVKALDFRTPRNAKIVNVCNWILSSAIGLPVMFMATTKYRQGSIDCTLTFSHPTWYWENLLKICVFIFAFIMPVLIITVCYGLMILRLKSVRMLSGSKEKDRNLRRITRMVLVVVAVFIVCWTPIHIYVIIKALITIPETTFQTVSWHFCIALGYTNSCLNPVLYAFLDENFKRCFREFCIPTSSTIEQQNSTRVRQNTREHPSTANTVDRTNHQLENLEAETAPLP

Structure (SMILES)	MOR agonist activity ([35S]GTPgS binding to Gao) [1] [%]	MOR agonist activity ([35S]GTPgS binding to Gao) (1 μM + BFNA, Series C-2 table) [%]	MOR agonist activity ([35S]GTPgS binding to Gao) [2] [%]	MOR agonist activity ([35S]GTPgS binding to Gao) [3] [%]	MOR agonist activity ([35S]GTPgS binding to Gao) (1 μM + BFNA, Series C-1 table) [%]	MOR agonist activity ([35S]GTPgS binding to Gao) [4] [%]	also measured
CC(=O)c1ccc(S(=O)(=O)N2CC(CN(C)C)OC23CCN(C)CC3)cc1 (stereo not drawn) [Compound C0108M]	205.6	76.9	258.5				
O=C1CN(Cc2ccccc2)C2(CCN(S(=O)(=O)c3cc(Cl)c(O)c(Cl)c3)CC2)N1 [Compound C0139M]				156.1	51.0	206.6	
O=S(=O)(c1ccc(C(F)(F)F)cc1)N1CCC2(CC1)OCCN2S(=O)(=O)c1ccc(C(F)(F)F)cc1 [Compound C0012]				96.8	184.4	224.8	
COc1ccc(S(=O)(=O)N2CCC3(CC2)OCCN3S(=O)(=O)c2ccc(OC)c(OC)c2)cc1OC [Compound C0049]				106.6	81.0	210.0	
O=C(OCc1ccccc1)c1ccc(S(=O)(=O)N2CCC3(CC2)OCCN3S(=O)(=O)c2ccc(C(=O)OCc3ccccc3)cc2)cc1 [Compound C0042]				167.1	110.6	260.9	
O=S(=O)(c1ccc(OC(F)(F)F)cc1)N1CCC2(CC1)OCCN2S(=O)(=O)c1ccc(OC(F)(F)F)cc1 [Compound C0006]				121.5	4.6	204.0	
COc1cc(S(=O)(=O)N2CCC3(CC2)OCCN3S(=O)(=O)c2cc(OC)c(OC)c(OC)c2)cc(OC)c1OC [Compound C0062]				127.8	59.8	310.5	
O=C1CNC2(CCN(S(=O)(=O)c3ccc(O)cc3)CC2)N1Cc1ccccc1 [Compound C0148M]				181.3	87.6	360.6	% DAMGO + BFNA (relative to DAMGO + BFNA, Series C-1 table): 95.9%; % DAMGO (0.1 μM) (relative to DAMGO at 0.1 μM, Series C-1 table): 105.4%; % DAMGO (1 μM) (relative to DAMGO at 1 μM, Series C-1 table): 110.6%
CC(=O)c1ccc(S(=O)(=O)N2CC(CN(C)C)OC23CCNCC3)cc1 (stereo not drawn) [Compound C0118M]	166.2	79.2	261.5				
CCc1ccc(S(=O)(=O)N2CCOC23CCN(CC2CC2)CC3)cc1 [Compound C0135M]	161.3	113.3	310.1				
O=S(=O)(c1cccc(OC(F)(F)F)c1)N1CCC2(CC1)OCCN2S(=O)(=O)c1cccc(OC(F)(F)F)c1 [Compound C0005]				180.4	166.4	227.2	
Cc1ccc(S(=O)(=O)N2CCOC23CCN(CC2CC2)CC3)cc1 [Compound C0134M]	158.5	46.6	207.3				MOR agonist activity (preliminary study) (1 mM + bNFA): 53.2%; MOR agonist activity (preliminary study) [5]: 150.7%; MOR agonist activity (preliminary study) [6]: 224.0%
CC(=O)c1ccc(S(=O)(=O)N2CCC3(CC2)NC(=O)C(Cc2cnc[nH]2)N3S(=O)(=O)c2ccc(C(C)=O)cc2)cc1 (stereo not drawn) [Compound C0084M]				163.1	133.2	255.5	
O=C1CN(Cc2ccccc2)C2(CCN(S(=O)(=O)c3cc(Cl)cc(Cl)c3O)CC2)N1 [Compound C0138M]				126.9	51.5	183.9	
CNc1ccc(S(=O)(=O)N2CCC3(CC2)OCCN3S(=O)(=O)c2ccc(NC)cc2)cc1 [Compound C0024]				178.4	59.3	229.6	
CC(=O)Nc1ccc(S(=O)(=O)N2CCC3(CC2)OCCN3S(=O)(=O)c2ccc(NC(C)=O)cc2)cc1 [Compound C0013]				156.6	39.6	301.2	
O=[N+]([O-])c1ccc(S(=O)(=O)N2CCC3(CC2)NCCS3)cc1 [Compound C0044]	173.7	59.1	280.1				
O=S(=O)(c1ccc(-c2ccccc2)cc1)N1CCC2(CC1)OCCN2S(=O)(=O)c1ccc(-c2ccccc2)cc1 [Compound C0010]				136.5	89.1	307.0	
O=C1CNC2(CCN(CC3CC3)CC2)N1Cc1ccccc1 [Compound C0124M]	252.0	61.4	305.1				
C=CCN1CCC2(CC1)OCCN2S(=O)(=O)c1ccc(OC)cc1 [Compound C0091M]	207.9	80.8	274.4				
O=S(=O)(c1ccc(Cl)cc1)N1CCC2(CC1)OCCN2S(=O)(=O)c1ccc(Cl)cc1 [Compound C0067]				142.7	33.5	179.0	
CC(=O)c1ccc(S(=O)(=O)N2CCC3(CC2)NCCS3)cc1 [Compound C0060]	166.5	143.9	218.9				
O=S(=O)(c1ccc(OC(F)(F)F)cc1)N1CCOC12CCN(CC1CC1)CC2 [Compound 4]							MOR agonist activity (preliminary study) (1 mM + bNFA): 49.5%; MOR agonist activity (preliminary study) [5]: 133.9%; MOR agonist activity (preliminary study) [6]: 165.2%
COC(=O)c1ccc(S(=O)(=O)N2CCC3(CC2)OCCN3S(=O)(=O)c2ccc(C(=O)OC)cc2)cc1 [Compound C0028]				93.9	78.4	132.4	
COc1ccc(S(=O)(=O)N2CCC3(NCCO3)C3CCCCC32)cc1 (stereo not drawn) [Compound C0144M-2]	186.3	125.9	295.9				
CC(=O)c1ccc(S(=O)(=O)N2CCC3(CC2)NC(=O)CN3S(=O)(=O)c2ccc(C(C)=O)cc2)cc1 [Compound C0064]				213.8	38.1	349.6	
Cc1ccc(S(=O)(=O)N2CCC3(CC2)OCCN3S(=O)(=O)c2ccc(C)cc2)cc1 [Compound C0001]				129.3	33.9	184.3	
CC(=O)c1ccc(S(=O)(=O)N2CCC3(CC2)NC(=O)CO3)cc1 [Compound C0087M]	262.8	142.5	329.6				
COc1ccc(NC(=O)N2CCC3(CC2)OCCN3C(=O)Nc2ccc(OC)cc2)cc1 [Compound C0151M]				346.8	212.8	397.6	
CC(=O)c1ccc(S(=O)(=O)N2CCC3(CC2)OCCN3S(C)(=O)=O)cc1 [Compound C0056]	98.6	86.3	193.4				
